# Measurements reported in PubChem BioAssay (NCI).
#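 Grown in 96-well plates, cells were treated for 48 hours with each compound at five concentrations. Insufficient inhibition: endpoint recorded as highest concentration tested. GI50: concentration for 50% inhibition of growth. TGI is the concentration that stops growth completely.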
# Experiments:
# Assay in all cases: NCI tumour cell line growth inhibition, 48 h
# HCC-2998 colon = test system: HCC-2998 colon
# 786-0 renal = test system: 786-0 renal
# CAKI-1 renal = test system: CAKI-1 renal
# M14 melanoma = test system: M14 melanoma
# A549 NSCLC = test system: A549 NSCLC
# SF-268 CNS = test system: SF-268 CNS
# HOP-62 NSCLC = test system: HOP-62 NSCLC
# UACC-257 melanoma = test system: UACC-257 melanoma
# LOX IMVI melanoma = test system: LOX IMVI melanoma
# SR leukemia = test system: SR leukemia
# NCI-H460 lung = test system: NCI-H460 lung
# HL-60(TB) leukemia = test system: HL-60(TB) leukemia
# OVCAR-4 ovarian = test system: OVCAR-4 ovarian
# HCT-15 colon = test system: HCT-15 colon
# HT29 colon = test system: HT29 colon
# DU-145 prostate = test system: DU-145 prostate
# SF-539 CNS = test system: SF-539 CNS
# OVCAR-3 ovarian = test system: OVCAR-3 ovarian
# HCT-116 colon = test system: HCT-116 colon
# A498 renal = test system: A498 renal
# EKVX NSCLC = test system: EKVX NSCLC
# SN12C renal = test system: SN12C renal
# HS 578T breast = test system: HS 578T breast
# BT-549 breast = test system: BT-549 breast
# OVCAR-5 ovarian = test system: OVCAR-5 ovarian
# COLO 205 colon = test system: COLO 205 colon
# SW-620 colon = test system: SW-620 colon
# K-562 leukemia = test system: K-562 leukemia
# MDA-MB-435 = test system: MDA-MB-435
# MDA-MB-231 breast = test system: MDA-MB-231 breast
# NCI-H23 lung = test system: NCI-H23 lung
# MCF7 breast = test system: MCF7 breast
# SNB-19 CNS = test system: SNB-19 CNS
# MOLT-4 leukemia = test system: MOLT-4 leukemia
# HOP-92 NSCLC = test system: HOP-92 NSCLC
# SK-MEL-5 melanoma = test system: SK-MEL-5 melanoma
# MDA-MB-468 breast = test system: MDA-MB-468 breast
# PC-3 prostate = test system: PC-3 prostate
# SK-MEL-28 melanoma = test system: SK-MEL-28 melanoma
# NCI-H226 lung = test system: NCI-H226 lung
# MALME-3M melanoma = test system: MALME-3M melanoma
# SF-295 CNS = test system: SF-295 CNS
# SK-MEL-2 melanoma = test system: SK-MEL-2 melanoma
# RPMI-8226 leukemia = test system: RPMI-8226 leukemia
# UACC-62 melanoma = test system: UACC-62 melanoma
# SK-OV-3 ovarian = test system: SK-OV-3 ovarian
# CCRF-CEM leukemia = test system: CCRF-CEM leukemia
# ACHN renal = test system: ACHN renal
# KM12 colon = test system: KM12 colon
# OVCAR-8 ovarian = test system: OVCAR-8 ovarian
# NCI-H522 lung = test system: NCI-H522 lung
# IGROV1 ovarian = test system: IGROV1 ovarian
# RXF 393 renal = test system: RXF 393 renal
# U251 CNS = test system: U251 CNS
# UO-31 renal = test system: UO-31 renal
# TK-10 renal = test system: TK-10 renal
# T-47D breast = test system: T-47D breast
structure (smiles),measurement,setting,value
Cn1cc(-c2cc3nc(-c4cn(C)c5ncccc45)cc(N)n3n2)c2cc(F)ccc21,GI50,HCC-2998 colon,61.2 µM
same,TGI,HCC-2998 colon,> 100 µM
same,GI50,786-0 renal,4.82 µM
same,TGI,786-0 renal,19.8 µM
same,GI50,CAKI-1 renal,13 µM
same,TGI,CAKI-1 renal,> 100 µM
same,GI50,M14 melanoma,57 µM
same,TGI,M14 melanoma,> 100 µM
same,GI50,A549 NSCLC,7.71 µM
same,TGI,A549 NSCLC,> 100 µM
same,GI50,SF-268 CNS,15.6 µM
same,TGI,SF-268 CNS,> 100 µM
same,GI50,HOP-62 NSCLC,4.05 µM
same,TGI,HOP-62 NSCLC,16.6 µM
same,GI50,UACC-257 melanoma,65.6 µM
same,TGI,UACC-257 melanoma,> 100 µM
same,GI50,LOX IMVI melanoma,2.43 µM
same,TGI,LOX IMVI melanoma,5.78 µM
same,GI50,SR leukemia,2.48 µM
same,TGI,SR leukemia,> 100 µM
same,GI50,NCI-H460 lung,5.43 µM
same,TGI,NCI-H460 lung,> 100 µM
same,GI50,HL-60(TB) leukemia,> 100 µM
same,TGI,HL-60(TB) leukemia,> 100 µM
same,GI50,OVCAR-4 ovarian,4.12 µM
same,TGI,OVCAR-4 ovarian,20.9 µM
same,GI50,HCT-15 colon,> 100 µM
same,TGI,HCT-15 colon,> 100 µM
same,GI50,HT29 colon,4.14 µM
same,TGI,HT29 colon,28.4 µM
same,GI50,DU-145 prostate,8.97 µM
same,TGI,DU-145 prostate,> 100 µM
same,GI50,SF-539 CNS,10.6 µM
same,TGI,SF-539 CNS,28.8 µM
same,GI50,OVCAR-3 ovarian,14.1 µM
same,TGI,OVCAR-3 ovarian,57.8 µM
same,GI50,HCT-116 colon,> 100 µM
same,TGI,HCT-116 colon,> 100 µM
same,GI50,A498 renal,50 µM
same,TGI,A498 renal,> 100 µM
same,GI50,EKVX NSCLC,19 µM
same,TGI,EKVX NSCLC,> 100 µM
same,GI50,SN12C renal,9.61 µM
same,TGI,SN12C renal,> 100 µM
same,GI50,HS 578T breast,11.3 µM
same,TGI,HS 578T breast,69.6 µM
same,GI50,BT-549 breast,13.3 µM
same,TGI,BT-549 breast,48 µM
same,GI50,OVCAR-5 ovarian,25.2 µM
same,TGI,OVCAR-5 ovarian,> 100 µM
same,GI50,COLO 205 colon,6.78 µM
same,TGI,COLO 205 colon,> 100 µM
same,GI50,SW-620 colon,52.7 µM
same,TGI,SW-620 colon,> 100 µM
same,GI50,K-562 leukemia,10.5 µM
same,TGI,K-562 leukemia,> 100 µM
same,GI50,MDA-MB-435,> 100 µM
same,TGI,MDA-MB-435,> 100 µM
same,GI50,MDA-MB-231 breast,9.62 µM
same,TGI,MDA-MB-231 breast,26.8 µM
same,GI50,NCI-H23 lung,13.7 µM
same,TGI,NCI-H23 lung,58.2 µM
same,GI50,MCF7 breast,13.4 µM
same,TGI,MCF7 breast,> 100 µM
same,GI50,SNB-19 CNS,5.79 µM
same,TGI,SNB-19 CNS,24.3 µM
same,GI50,MOLT-4 leukemia,20 µM
same,TGI,MOLT-4 leukemia,> 100 µM
same,GI50,HOP-92 NSCLC,11.2 µM
same,TGI,HOP-92 NSCLC,46.7 µM
same,GI50,SK-MEL-5 melanoma,46.2 µM
same,TGI,SK-MEL-5 melanoma,> 100 µM
same,GI50,MDA-MB-468 breast,3.81 µM
same,TGI,MDA-MB-468 breast,22.1 µM
same,GI50,PC-3 prostate,11 µM
same,TGI,PC-3 prostate,> 100 µM
same,GI50,SK-MEL-28 melanoma,> 100 µM
same,TGI,SK-MEL-28 melanoma,> 100 µM
same,GI50,NCI-H226 lung,4.04 µM
same,TGI,NCI-H226 lung,20.2 µM
same,GI50,MALME-3M melanoma,10.6 µM
same,TGI,MALME-3M melanoma,37.7 µM
same,GI50,SF-295 CNS,3.22 µM
same,TGI,SF-295 CNS,14 µM
same,GI50,SK-MEL-2 melanoma,10.4 µM
same,TGI,SK-MEL-2 melanoma,23.3 µM
same,GI50,RPMI-8226 leukemia,13.6 µM
same,TGI,RPMI-8226 leukemia,> 100 µM
same,GI50,UACC-62 melanoma,20.4 µM
same,TGI,UACC-62 melanoma,> 100 µM
same,GI50,SK-OV-3 ovarian,14.4 µM
same,TGI,SK-OV-3 ovarian,34.5 µM
same,GI50,CCRF-CEM leukemia,7.83 µM
same,TGI,CCRF-CEM leukemia,> 100 µM
same,GI50,ACHN renal,4.21 µM
same,TGI,ACHN renal,20.6 µM
same,GI50,KM12 colon,> 100 µM
same,TGI,KM12 colon,> 100 µM
same,GI50,OVCAR-8 ovarian,4.6 µM
same,TGI,OVCAR-8 ovarian,40.5 µM
same,GI50,NCI-H522 lung,10.8 µM
same,TGI,NCI-H522 lung,30.6 µM
same,GI50,IGROV1 ovarian,4.45 µM
same,TGI,IGROV1 ovarian,53.1 µM
same,GI50,RXF 393 renal,2.61 µM
same,TGI,RXF 393 renal,9.35 µM
same,GI50,U251 CNS,4.12 µM
same,TGI,U251 CNS,15.4 µM
same,GI50,UO-31 renal,31.9 µM
same,TGI,UO-31 renal,> 100 µM
same,GI50,TK-10 renal,10.3 µM
same,TGI,TK-10 renal,31.3 µM
same,GI50,T-47D breast,6.15 µM
same,TGI,T-47D breast,67.1 µM
